The source of these data is PMC10917667, “Targeted protein degradation via intramolecular bivalent glues” (Nature, 2024).

This test addresses T1, BRD4 (BRD4^Tandem) (Homo sapiens, UniProt O60885).
T1 construct: BRD4^Tandem (residues 43–459), BD1 and BD2 with native linker; with DCAF16–DDB1(ΔBPB)–DDA1
Kind of test: cryo-EM ternary structure ([…] Å); alphaLISA displacement ([…] with DCAF16, […] alone); ITC; TR-FRET. The format is binding.

SMILES strings stand for the structures.

Compound `COC(=O)C[C@@H]1N=C(c2ccc(-c3ccc(C(=O)NCc4ccc(S(=O)(=O)Nc5ccc(C)c6c(C#N)c[nH]c56)cc4)cc3)cc2)c2c(sc(C)c2C)-n2c(C)nnc21` [IBG1] yielded an IC50 of 12.8 nM.
